The results in this text go back to ChEMBL document CHEMBL1921670, “Discovery and optimization of indole and 7-azaindoles as Rho kinase (ROCK) inhibitors (part-II)” (Bioorg Med Chem Lett, 2011).

As a reminder, the IC50 is the concentration at which inhibition is half-maximal. Low readings indicate greater potency, high ones weaker potency. The term half-life denotes the time in which the quantity being followed falls by half. As a reminder, the inhibition is the drop in the measured response relative to a control, in per cent.

The target in data set [1] is Rho-associated protein kinase 2 (Homo sapiens, UniProt O75116). Briefly: Inhibition of ROCK2.
In data set [2] the target is Rho-associated protein kinase 1 (Homo sapiens, UniProt Q13464). Briefly: Inhibition of ROCK1.
Data set [3] in a line: Inhibition of PKA.
Data set [4] is described as follows: Half life in human liver microsomes. It counts as ADME, Microsome.
In a further data set the target is T1, CYP1A2 (Homo sapiens, UniProt P05177).
T1 sequence (P05177 whole entry): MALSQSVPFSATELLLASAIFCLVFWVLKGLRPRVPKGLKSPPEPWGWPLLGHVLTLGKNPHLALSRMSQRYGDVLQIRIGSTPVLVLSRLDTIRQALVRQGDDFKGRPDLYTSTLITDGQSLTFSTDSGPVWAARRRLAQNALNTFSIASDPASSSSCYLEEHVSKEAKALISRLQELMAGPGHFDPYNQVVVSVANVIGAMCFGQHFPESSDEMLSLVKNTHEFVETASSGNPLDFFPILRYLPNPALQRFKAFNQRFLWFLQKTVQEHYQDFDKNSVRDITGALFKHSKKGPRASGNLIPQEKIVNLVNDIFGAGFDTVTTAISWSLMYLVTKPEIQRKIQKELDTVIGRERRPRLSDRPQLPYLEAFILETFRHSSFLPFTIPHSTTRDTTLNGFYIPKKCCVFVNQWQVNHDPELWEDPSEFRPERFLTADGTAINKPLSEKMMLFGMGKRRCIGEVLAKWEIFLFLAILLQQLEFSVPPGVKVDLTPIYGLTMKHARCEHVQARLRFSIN
The data set can be described thus: Inhibition of CYP1A2 at 10 uM. It counts as ADME.

In a further data set the target is CYP2C9 (Homo sapiens, UniProt P11712). Briefly: Inhibition of CYP2C9 at 10 uM. It counts as ADME.
A further data set concerns the target CYP2D6 (Homo sapiens, UniProt P10635). Briefly: Inhibition of CYP2D6 at 10 uM. It is filed as ADME.
Another data set deals with CYP3A4 (Homo sapiens, UniProt P08684). The data set can be described thus: Inhibition of CYP3A4 at 10 uM. It counts as ADME.
The nature of data set [5]: Inhibition of myosin light chain bisphosphorylation by cell-based assay.

Sequence of Rho-associated protein kinase 2 (O75116 whole entry): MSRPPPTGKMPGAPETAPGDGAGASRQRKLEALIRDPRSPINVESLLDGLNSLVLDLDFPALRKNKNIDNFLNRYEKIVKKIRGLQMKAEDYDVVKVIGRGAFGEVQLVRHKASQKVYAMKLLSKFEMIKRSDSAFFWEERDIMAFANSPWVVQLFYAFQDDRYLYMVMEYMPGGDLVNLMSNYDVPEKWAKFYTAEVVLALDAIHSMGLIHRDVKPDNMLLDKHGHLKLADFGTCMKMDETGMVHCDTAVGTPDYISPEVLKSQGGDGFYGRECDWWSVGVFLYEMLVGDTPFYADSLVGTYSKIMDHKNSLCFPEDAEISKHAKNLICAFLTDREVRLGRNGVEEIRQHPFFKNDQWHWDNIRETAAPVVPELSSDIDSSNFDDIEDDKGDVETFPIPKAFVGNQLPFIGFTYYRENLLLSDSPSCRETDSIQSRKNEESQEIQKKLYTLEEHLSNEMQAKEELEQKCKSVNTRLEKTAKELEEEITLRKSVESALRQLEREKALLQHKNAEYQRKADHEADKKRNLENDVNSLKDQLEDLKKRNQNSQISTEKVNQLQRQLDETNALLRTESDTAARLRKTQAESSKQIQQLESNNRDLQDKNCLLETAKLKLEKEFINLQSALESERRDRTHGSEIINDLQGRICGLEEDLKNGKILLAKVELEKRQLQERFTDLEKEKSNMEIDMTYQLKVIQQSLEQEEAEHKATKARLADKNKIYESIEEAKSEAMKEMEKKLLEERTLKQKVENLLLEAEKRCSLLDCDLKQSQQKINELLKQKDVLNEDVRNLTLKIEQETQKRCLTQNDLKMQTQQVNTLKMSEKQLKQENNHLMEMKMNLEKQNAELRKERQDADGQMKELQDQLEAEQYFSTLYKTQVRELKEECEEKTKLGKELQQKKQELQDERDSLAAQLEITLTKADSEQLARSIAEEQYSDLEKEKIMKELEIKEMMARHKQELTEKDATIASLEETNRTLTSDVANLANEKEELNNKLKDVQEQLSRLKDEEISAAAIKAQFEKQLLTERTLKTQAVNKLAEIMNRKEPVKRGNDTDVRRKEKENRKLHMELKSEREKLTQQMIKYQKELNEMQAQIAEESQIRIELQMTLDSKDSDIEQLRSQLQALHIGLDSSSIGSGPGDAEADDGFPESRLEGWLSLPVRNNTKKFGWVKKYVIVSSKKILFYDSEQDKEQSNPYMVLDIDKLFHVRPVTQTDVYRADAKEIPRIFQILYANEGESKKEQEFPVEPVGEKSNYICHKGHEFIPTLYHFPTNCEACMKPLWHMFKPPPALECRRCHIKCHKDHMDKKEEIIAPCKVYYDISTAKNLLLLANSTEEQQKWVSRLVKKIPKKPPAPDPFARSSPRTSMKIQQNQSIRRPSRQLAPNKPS
Sequence of CYP2C9 (P11712 whole entry): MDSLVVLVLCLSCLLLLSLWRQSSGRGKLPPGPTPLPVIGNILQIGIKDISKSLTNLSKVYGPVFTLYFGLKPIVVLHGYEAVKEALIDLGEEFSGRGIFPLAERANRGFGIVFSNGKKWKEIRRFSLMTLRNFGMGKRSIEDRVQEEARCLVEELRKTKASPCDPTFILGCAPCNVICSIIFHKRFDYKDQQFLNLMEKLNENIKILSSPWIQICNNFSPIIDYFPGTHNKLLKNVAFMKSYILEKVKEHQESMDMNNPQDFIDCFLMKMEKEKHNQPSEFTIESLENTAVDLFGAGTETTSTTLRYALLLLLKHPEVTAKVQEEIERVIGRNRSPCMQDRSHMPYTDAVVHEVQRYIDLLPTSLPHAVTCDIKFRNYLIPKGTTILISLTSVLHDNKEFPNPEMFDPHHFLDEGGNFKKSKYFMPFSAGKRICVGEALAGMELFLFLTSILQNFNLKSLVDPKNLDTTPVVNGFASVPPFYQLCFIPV
Sequence of CYP3A4 (P08684 whole entry): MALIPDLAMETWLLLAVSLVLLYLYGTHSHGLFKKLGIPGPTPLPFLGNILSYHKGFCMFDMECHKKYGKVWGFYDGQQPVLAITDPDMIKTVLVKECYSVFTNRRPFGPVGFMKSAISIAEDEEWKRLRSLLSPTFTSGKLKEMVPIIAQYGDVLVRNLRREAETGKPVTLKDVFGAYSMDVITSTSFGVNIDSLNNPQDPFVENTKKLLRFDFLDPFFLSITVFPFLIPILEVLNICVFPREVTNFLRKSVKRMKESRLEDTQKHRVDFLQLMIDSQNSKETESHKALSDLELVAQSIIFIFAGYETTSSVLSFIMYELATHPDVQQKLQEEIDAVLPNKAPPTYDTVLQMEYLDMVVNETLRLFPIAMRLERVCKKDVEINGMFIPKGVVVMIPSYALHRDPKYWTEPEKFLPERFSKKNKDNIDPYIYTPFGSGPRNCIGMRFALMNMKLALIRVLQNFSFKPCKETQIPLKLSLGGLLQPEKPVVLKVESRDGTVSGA
Sequence of Rho-associated protein kinase 1 (Q13464 whole entry): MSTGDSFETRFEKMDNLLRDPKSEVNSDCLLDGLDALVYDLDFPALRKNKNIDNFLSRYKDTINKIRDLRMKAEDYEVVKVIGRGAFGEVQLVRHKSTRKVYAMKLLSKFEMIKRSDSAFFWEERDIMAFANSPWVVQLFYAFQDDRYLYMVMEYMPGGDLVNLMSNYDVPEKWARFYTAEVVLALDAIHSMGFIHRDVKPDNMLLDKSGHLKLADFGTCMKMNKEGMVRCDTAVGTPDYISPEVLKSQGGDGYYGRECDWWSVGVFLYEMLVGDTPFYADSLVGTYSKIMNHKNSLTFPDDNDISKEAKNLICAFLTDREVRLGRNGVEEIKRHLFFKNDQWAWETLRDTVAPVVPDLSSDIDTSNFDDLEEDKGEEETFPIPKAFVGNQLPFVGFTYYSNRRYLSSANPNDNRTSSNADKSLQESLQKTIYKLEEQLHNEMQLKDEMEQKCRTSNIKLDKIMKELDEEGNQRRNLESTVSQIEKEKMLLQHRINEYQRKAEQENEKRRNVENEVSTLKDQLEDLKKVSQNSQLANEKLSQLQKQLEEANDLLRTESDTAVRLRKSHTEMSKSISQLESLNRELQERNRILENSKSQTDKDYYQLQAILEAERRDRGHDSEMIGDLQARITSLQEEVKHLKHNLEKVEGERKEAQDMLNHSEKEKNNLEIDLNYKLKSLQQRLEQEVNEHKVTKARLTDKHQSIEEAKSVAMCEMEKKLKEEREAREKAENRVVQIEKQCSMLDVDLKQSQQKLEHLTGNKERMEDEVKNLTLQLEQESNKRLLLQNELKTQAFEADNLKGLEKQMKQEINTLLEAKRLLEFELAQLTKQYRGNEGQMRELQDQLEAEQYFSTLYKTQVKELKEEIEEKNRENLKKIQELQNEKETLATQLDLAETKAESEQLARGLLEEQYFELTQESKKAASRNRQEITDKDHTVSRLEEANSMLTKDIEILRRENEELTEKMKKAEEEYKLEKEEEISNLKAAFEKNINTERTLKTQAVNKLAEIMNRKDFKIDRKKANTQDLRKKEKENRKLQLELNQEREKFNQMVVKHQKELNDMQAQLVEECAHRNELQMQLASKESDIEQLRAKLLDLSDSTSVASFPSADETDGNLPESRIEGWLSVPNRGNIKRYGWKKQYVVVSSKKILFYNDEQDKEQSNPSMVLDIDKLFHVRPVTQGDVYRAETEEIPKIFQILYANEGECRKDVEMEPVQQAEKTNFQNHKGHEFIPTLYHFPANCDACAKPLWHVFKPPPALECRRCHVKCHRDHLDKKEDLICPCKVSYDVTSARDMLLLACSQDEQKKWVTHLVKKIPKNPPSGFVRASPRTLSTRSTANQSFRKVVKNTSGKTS
Sequence of CYP2D6 (P10635 whole entry): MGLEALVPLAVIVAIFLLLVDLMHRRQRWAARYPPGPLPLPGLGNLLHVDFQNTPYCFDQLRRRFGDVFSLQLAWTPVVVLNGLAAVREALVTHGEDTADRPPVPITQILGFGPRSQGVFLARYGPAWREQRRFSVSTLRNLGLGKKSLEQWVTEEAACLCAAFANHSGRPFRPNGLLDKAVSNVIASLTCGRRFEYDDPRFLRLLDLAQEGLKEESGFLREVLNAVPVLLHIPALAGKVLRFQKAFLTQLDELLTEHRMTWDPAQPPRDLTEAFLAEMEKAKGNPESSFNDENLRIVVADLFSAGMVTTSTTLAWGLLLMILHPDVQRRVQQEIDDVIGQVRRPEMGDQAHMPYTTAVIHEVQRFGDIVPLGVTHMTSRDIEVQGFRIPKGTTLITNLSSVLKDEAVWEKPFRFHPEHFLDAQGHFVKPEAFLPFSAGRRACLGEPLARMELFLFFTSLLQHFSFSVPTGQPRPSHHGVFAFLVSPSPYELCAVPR

For `COc1cccc(CN(CCCN2CCN(C)CC2)C(=O)c2c[nH]c3nc(-c4cn[nH]c4)ccc23)c1`, the IC50 in data set [1] came to 62 nM; in data set [2] it was 260 nM; in data set [3], 3700 nM.
On the same counts, the results for `COc1cccc(CNC(=O)c2cc3ccc(-c4cn[nH]c4)nc3n2CC2CC2)c1` are 150 nM, 280 nM and 5000 nM.
Regarding `COc1cccc(CNC(=O)c2[nH]c3nc(-c4cn[nH]c4)ccc3c2CN2CCOCC2)c1`, the values for the IC50 in [1], in data set [2] and in data set [3] were 16 nM, 91 nM and 6100 nM, respectively. In addition, the half-life in data set [4] came out at 4 min. Besides, the inhibition at 10 µM at CYP1A2 is 7%; at CYP2C9 it was 9%; on CYP2D6 it was 28%; against CYP3A4 it was 46%.
With `COc1cccc(CNC(=O)c2[nH]c3nc(-c4cn[nH]c4)ccc3c2CN2CCN(C)CC2)c1`, the figures for the IC50 in data set [1], in data set [2] and in data set [3] were 8 nM, 39 nM and 911 nM, respectively. In [4], this molecule yielded a half-life of 1 min. In addition, the inhibition at 10 µM at CYP1A2 is -15%; against CYP2C9, -26%; on CYP2D6, 60%; on CYP3A4, 34%.
As for `COc1cccc(CN(CCN2CCCC2)C(=O)c2cc3ccc(-c4cn[nH]c4)nc3n2C)c1`, the IC50 in data set [1] worked out at 220 nM; in data set [2] it was 1000 nM; in data set [3], 2200 nM.
The corresponding values for `COc1cccc(CN(CCCN(C)C)C(=O)c2cc3ccc(-c4cn[nH]c4)cc3[nH]2)c1` are 10 nM, 46 nM and 1600 nM.
With `COc1cccc(CN(CC[N+]2(C)CCCC2)C(=O)c2cc3ccc(-c4cn[nH]c4)nc3n2C)c1`, the values for the IC50 in [1], in [2] and in data set [3] were 1900 nM, 6600 nM and 3700 nM, respectively.
On to `COc1cccc(CNC(=O)c2cn(C)c3cc(-c4cn[nH]c4)ccc23)c1`, for which the IC50 is below 1 nM in data set [1], below 1 nM in [2], 87 nM in data set [3] and 4 nM in data set [5]. This molecule registered a half-life in data set [4] of 9 min. Also, the inhibition at 10 µM on CYP1A2 is 23%; against CYP2C9, 93%; at CYP2D6, 53%; on CYP3A4 it was 87%.
For the molecule `COc1cccc(CN(C)C(=O)c2cn(CCN(C)C)c3cc(-c4cn[nH]c4)ccc23)c1`, the values for the IC50 in data set [1], in data set [2] and in data set [3] were 9 nM, 110 nM and above 20000 nM, respectively.
As to `COc1cccc(CN(C)C(=O)c2cc3ccc(-c4cn[nH]c4)cc3n2C)c1`, the IC50 in data set [1] was 200 nM; in data set [2], 1100 nM; in [3], above 20000 nM.
Consider `COc1cccc(CNC(=O)c2cn(C)c3nc(-c4cn[nH]c4)ccc23)c1`, for which the IC50 in data set [1] was below 1 nM; in [2], below 1 nM; in data set [3] it was 720 nM. This molecule also registered a half-life in data set [4] of 13 min. The inhibition at 10 µM against CYP1A2 is -2%; at CYP2C9 it was 77%; on CYP2D6 it was 23%; at CYP3A4 it was 68%.
On to `COc1cccc(CNC(=O)c2cn(CCCO)c3cc(-c4cn[nH]c4)ccc23)c1`, for which the IC50 in data set [1] came out at 1 nM; in data set [2], 3 nM; in data set [3], 900 nM. In data set [4], this molecule displayed a half-life of 21 min. In addition, the inhibition at 10 µM on CYP1A2 worked out at 71%; against CYP2C9 it was 87%; against CYP2D6, 32%; against CYP3A4, 63%.
Consider `COc1cccc(CNC(=O)c2cn(-c3ccccc3)c3cc(-c4cn[nH]c4)ccc23)c1`, for which the IC50 in data set [1] amounted to 5 nM; in [2], 21 nM. Moreover, the half-life in data set [4] worked out at 10 min. In addition, the inhibition at 10 µM at CYP1A2 is 36%; at CYP2C9, 96%; on CYP2D6, 76%; at CYP3A4, 93%.
As to `COc1cccc(CN(C)C(=O)c2cn(C)c3cc(-c4cn[nH]c4)ccc23)c1`, the IC50 in data set [1] was below 1 nM; in data set [2], 3 nM; in data set [3], 680 nM; in data set [5] it was 17 nM. The molecule further came in with a half-life in [4] of 4 min. Moreover, the inhibition at 10 µM is 23% at CYP1A2, 93% at CYP2C9, 58% on CYP2D6 and 70% against CYP3A4.
`COc1cccc(CN(CCCN(C)C)C(=O)c2cn(C)c3cc(-c4cn[nH]c4)ccc23)c1`: the IC50 in [1] was 1 nM; in [2], 13 nM; in [3] it was 2810 nM; in data set [5], 53 nM. In [4], this molecule displayed a half-life of 14 min. Further, the inhibition at 10 µM against CYP1A2 worked out at 4%; against CYP2C9 it was 28%; at CYP2D6, 31%; against CYP3A4, 31%.
For `COc1cccc(CNC(=O)c2cc3ccc(-c4cn[nH]c4)cc3n2CCN(C)C)c1`, the IC50 is 310 nM in [1], 710 nM in data set [2] and above 20000 nM in [3].
As for `COc1cccc(CN(CCN2CCCC2)C(=O)c2cc3ccc(-c4cn[nH]c4)cc3[nH]2)c1`, the IC50 was 11 nM in data set [1], 62 nM in [2], 1640 nM in data set [3] and 206 nM in [5]. Also, in data set [4], the half-life was found to be 49 min. In addition, the inhibition at 10 µM against CYP1A2 was -2%; on CYP2C9, 65%; at CYP2D6, 78%; against CYP3A4, 59%.
On to `COc1cccc(CN(CCN2CCCC2)C(=O)c2cc3ccc(-c4cn[nH]c4)nc3[nH]2)c1`, for which the concentration for half-maximal inhibition (IC50) was 18 nM in data set [1], 121 nM in data set [2] and above 20000 nM in [3]. The molecule also gave a half-life in data set [4] of 21 min. The inhibition at 10 µM against CYP1A2 came out at 12%; on CYP2C9 it was 26%; against CYP2D6 it was 52%; against CYP3A4, 43%.
`COc1cccc(CN(C)C(=O)c2cc3ccc(-c4cn[nH]c4)cc3[nH]2)c1`: the IC50 in [1] was found to be 3 nM; in data set [2], 37 nM; in data set [3] it was 2800 nM; in [5], 70 nM. The same molecule yielded a half-life in data set [4] of 46 min. The inhibition at 10 µM against CYP1A2 is -7%; against CYP2C9, 27%; at CYP2D6 it was 9%; at CYP3A4, 2%.
As for `COc1cccc(CN(C)C(=O)c2c[nH]c3cc(-c4cn[nH]c4)ccc23)c1`, the results for the IC50 in data set [1], in [2] and in data set [3] were 2 nM, 19 nM and 4300 nM, respectively. This molecule came in with a half-life in [4] of 13 min. Besides, the inhibition at 10 µM on CYP1A2 turned out to be 70%; at CYP2C9, 94%; against CYP2D6 it was 50%; at CYP3A4, 38%.
With `COc1cccc(CNC(=O)c2[nH]c3cc(-c4cn[nH]c4)ccc3c2CN2CCCNCC2)c1`, the IC50 was below 1 nM in [1], 8 nM in data set [2] and 385 nM in data set [3]. Also, the half-life in data set [4] amounted to 50 min. Besides, the inhibition at 10 µM was determined as 41% on CYP1A2, 53% on CYP2C9, 81% against CYP2D6 and 51% on CYP3A4.
`COc1cccc(CN(CCN(C)C)C(=O)c2cn(CCN3CCCC3)c3cc(-c4cn[nH]c4)ccc23)c1`: the IC50 in data set [1] was 2800 nM; in data set [2], 8900 nM; in data set [3], above 20000 nM.
Regarding `COc1cccc(CNC(=O)c2[nH]c3cc(-c4cn[nH]c4)ccc3c2CN(C)C)c1`, the results for the IC50 in [1], in data set [2] and in data set [3] were 9 nM, 34 nM and 1500 nM, respectively. The molecule further had a half-life in [4] of 68 min. Moreover, the inhibition at 10 µM was 18% at CYP1A2, 27% at CYP2C9, 48% against CYP2D6 and 19% on CYP3A4.
`COc1cccc(CNC(=O)c2cc3ccc(-c4cn[nH]c4)cc3n2CCCO)c1`: the IC50 was 24 nM in data set [1], 88 nM in [2] and 1800 nM in data set [3].
The corresponding values for `CCN(Cc1cccc(OC)c1)C(=O)c1c[nH]c2nc(-c3cn[nH]c3)ccc12` are 19 nM, 76 nM and 5000 nM.
On to `COc1cccc(CN(C(=O)c2c[nH]c3nc(-c4cn[nH]c4)ccc23)C2CC2)c1`, for which the figures for the half-inhibitory concentration (IC50) in data set [1], in [2] and in [3] were 6 nM, 30 nM and above 20000 nM, respectively. Besides, in data set [4], the half-life stood at 9 min. The inhibition at 10 µM on CYP1A2 is -5%; against CYP2C9 it was 91%; against CYP2D6, 25%; on CYP3A4, 56%.
For the molecule `COc1cccc(CNC(=O)c2cc3ccc(-c4cn[nH]c4)nc3n2Cc2cccc(OC)c2)c1`, the half-inhibitory concentration (IC50) in data set [1] is 4400 nM; in [2] it was above 20000 nM.
Take `COc1cccc(CN(C)C(=O)c2cc3ccc(-c4cn[nH]c4)cc3n2CCN(C)C)c1`: the figures for the IC50 in data set [1], in data set [2] and in [3] were 2300 nM, 6900 nM and above 20000 nM, respectively.
The molecule `COc1cccc(CNC(=O)c2c[nH]c3nc(-c4cn[nH]c4)ccc23)c1` showed an IC50 in data set [3] of 8000 nM.
